According to ChEMBL document CHEMBL1811879, “Fragmental modeling of hPepT2 and analysis of its binding features by docking studies and pharmacophore mapping” (Bioorg Med Chem, 2011):
Where a SMILES comes first, the peptide text is derived from it. [ ]: non-standard residue; d: D form. Nle = CCCC[C@H](N)C(=O)O

Each compound was assayed against T1, Solute carrier family 15 member 2 (Homo sapiens, UniProt Q16348) (assay: Binding affinity to human PepT2 in SKTP cells).
T1 sequence (Q16348 whole entry): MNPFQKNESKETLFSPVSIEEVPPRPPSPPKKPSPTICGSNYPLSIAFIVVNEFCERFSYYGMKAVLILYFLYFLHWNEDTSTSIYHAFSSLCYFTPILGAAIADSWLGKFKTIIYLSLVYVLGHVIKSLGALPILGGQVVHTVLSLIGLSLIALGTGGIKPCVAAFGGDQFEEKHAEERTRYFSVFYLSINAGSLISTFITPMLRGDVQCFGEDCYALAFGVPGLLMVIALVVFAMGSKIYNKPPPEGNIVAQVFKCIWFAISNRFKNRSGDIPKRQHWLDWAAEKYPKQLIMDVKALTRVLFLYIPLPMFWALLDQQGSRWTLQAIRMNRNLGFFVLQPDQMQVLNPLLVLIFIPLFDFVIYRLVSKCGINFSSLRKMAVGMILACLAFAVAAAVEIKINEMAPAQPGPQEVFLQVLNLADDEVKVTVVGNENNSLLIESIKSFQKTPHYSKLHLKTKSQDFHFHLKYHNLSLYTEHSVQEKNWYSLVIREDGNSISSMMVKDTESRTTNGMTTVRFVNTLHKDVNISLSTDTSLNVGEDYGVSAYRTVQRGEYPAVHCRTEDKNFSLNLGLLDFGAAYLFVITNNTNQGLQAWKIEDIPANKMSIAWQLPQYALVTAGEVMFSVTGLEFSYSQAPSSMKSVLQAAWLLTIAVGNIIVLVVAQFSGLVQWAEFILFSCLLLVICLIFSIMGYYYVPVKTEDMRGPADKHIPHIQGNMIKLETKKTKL
Type: ADME, cell-based

Row | Compound | Ki [µM]
1 | CO/N=C(\C(=O)N[C@@H]1C(=O)N2C(C(=O)[O-])=C(C[N+]3(C)CCCC3)CS[C@H]12)c1csc(N)n1 | 11000
2 | C[C@H](N)C(=O)N[C@H](C(=O)N[C@@H](C)C(=O)N[C@@H](C)C(=O)O)[C@@H](C)O (H-ATAA-OH) | 550
3 | C[C@H](N)C(=O)N[C@H](C)C(=O)O (H-Ala-[dA]-OH) | 270
4 | NCCCC[C@H](NC(=O)[C@H](Cc1cnc[nH]1)NC(=O)CN)C(=O)O (H-Gly-His-Lys-OH) | 3100
5 | O=C(O)C[C@H](NC(=O)[C@@H]1CCCN1)C(=O)O (H-Pro-Asp-OH) | 2100
6 | O=C(O)CC[C@H](NC(=O)[C@@H]1CCCN1)C(=O)O (H-Pro-Glu-OH) | 2600
7 | NCCCC[C@H](NC(=O)[C@H](Cc1ccccc1)NC(=O)[C@@H]1CCCN1)C(=O)O (H-Pro-Phe-Lys-OH) | 900
8 | CC1(C)S[C@@H]2[C@H](NC(=O)[C@H](N)c3ccc(O)cc3)C(=O)N2[C@H]1C(=O)O [AMOXICILLIN] | 430
9 | Cn1nnnc1SCC1=C(C(=O)O)N2C(=O)[C@@H](NC(=O)[C@H](O)c3ccccc3)[C@H]2SC1 [CEFAMANDOLE] | 2800
10 | C=CC1=C(C(=O)O)N2C(=O)[C@@H](NC(=O)/C(=N\OCC(=O)O)c3csc(N)n3)[C@H]2SC1 [CEFIXIME] | 2600
11 | CO[C@@]1(NC(=O)CSCC#N)C(=O)N2C(C(=O)O)=C(CSc3nnnn3C)CS[C@@H]21 [CEFMETAZOLE] | 4300
12 | CO/N=C(\C(=O)N[C@@H]1C(=O)N2C(C(=O)O)=C(CSc3nc(C)c(CC(=O)O)s3)CS[C@H]12)c1csc(N)n1 [CEFODIZIME] | 9000
13 | CO/N=C(\C(=O)N[C@@H]1C(=O)N2C(C(=O)O)=C(COC(C)=O)CS[C@H]12)c1csc(N)n1 [CEFOTAXIME] | 20000
14 | COCC1=C(C(=O)O)N2C(=O)[C@@H](NC(=O)/C(=N\OC)c3csc(N)n3)[C@H]2SC1 [CEFPODOXIME] | 31000
15 | CO/N=C(\C(=O)N[C@@H]1C(=O)N2C(C(=O)O)=C(COC(N)=O)CS[C@H]12)c1ccco1 [CEFUROXIME] | 12600
16 | O=C(Cc1cccs1)N[C@@H]1C(=O)N2C(C(=O)[O-])=C(C[n+]3ccccc3)CS[C@H]12 [CEPHALORIDINE] | 8500
17 | CC(=O)OCC1=C(C(=O)O)N2C(=O)[C@@H](NC(=O)Cc3cccs3)[C@H]2SC1 [CEPHALOTHIN] | 8300
18 | CC(=O)OCC1=C(C(=O)O)N2C(=O)[C@@H](NC(=O)CSc3ccncc3)[C@H]2SC1 [CEPHAPIRIN SODIUM] | 11100
19 | Cc1onc(-c2ccccc2Cl)c1C(=O)N[C@@H]1C(=O)N2[C@@H]1SC(C)(C)[C@@H]2C(=O)O [CLOXACILLIN] | 950
20 | Cc1onc(-c2c(Cl)cccc2Cl)c1C(=O)N[C@@H]1C(=O)N2[C@@H]1SC(C)(C)[C@@H]2C(=O)O [DICLOXACILLIN] | 420
21 | CC(=O)CCC(=O)O [LEVULINIC ACID] | 230
22 | C=N[C@@H](C(=O)N[C@@H]1C(=O)N2[C@@H]1SC(C)(C)[C@@H]2C(=O)O)c1ccccc1 [METAMPICILLIN] | 730
23 | Cc1onc(-c2ccccc2)c1C(=O)N[C@@H]1C(=O)N2[C@@H]1SC(C)(C)[C@@H]2C(=O)O [OXACILLIN] | 3300
24 | H-AATAA-OH | 190
25 | H-FATAA-OH | 240

Compounds with a lower Ki, results first:

Row | Ki [µM] | Compound
26 | 18 | C[C@H](N)C(=O)N[C@@H](C)C(=O)N[C@@H](C)C(=O)O
27 | 4.4 | C[C@H](NC(=O)[C@@H](N)Cc1ccc(O)cc1)C(=O)O
28 | 1.7 | N[C@@H](Cc1c[nH]c2ccccc12)C(=O)NCC(=O)N[C@@H](Cc1ccc(O)cc1)C(=O)O
29 | 29 | N[C@@H](CS)C(=O)NCC(=O)O
30 | 16 | CC(=O)N[C@@H](CCCCN)C(=O)N[C@@H](C)C(=O)O (Ac-Lys-Ala-OH)
31 | 160 | C[C@H](N)C(=O)N[C@@H](C)C(=O)N[C@@H](CC(=O)O)C(=O)O (H-Ala-Ala-Asp-OH)
32 | 7 | C[C@H](N)C(=O)NCC(=O)O (H-Ala-Gly-OH)
33 | 23 | C[C@H](N)C(=O)N[C@@H](CCCCN)C(=O)O (H-Ala-Lys-OH)
34 | 12 | C[C@H](N)C(=O)N1CCC[C@H]1C(=O)O (H-Ala-Pro-OH)
35 | 6 | C[C@H](N)C(=O)N[C@@H](CO)C(=O)O (H-Ala-Ser-OH)
36 | 31 | CCCC[C@H](NC(=O)[C@H](C)N)C(=O)O (H-Ala-[Nle]-OH)
37 | 150 | N[C@@H](CC(=O)O)C(=O)N[C@@H](CC(=O)O)C(=O)O (H-Asp-Asp-OH)
38 | 3.5 | C[C@H](NC(=O)CN)C(=O)O (H-Gly-Ala-OH)
39 | 54 | NCC(=O)NCC(=O)O (H-Gly-Gly-OH)
40 | 39 | NCC(=O)N[C@@H](Cc1c[nH]cn1)C(=O)O (H-Gly-His-OH)
41 | 8 | CC[C@H](C)[C@H](N)C(=O)N[C@@H](Cc1ccc(O)cc1)C(=O)O (H-Ile-Tyr-OH)
42 | 14 | CC[C@H](C)[C@H](N)C(=O)N[C@H](C(=O)N[C@@H](Cc1ccc(O)cc1)C(=O)O)C(C)C (H-Ile-Val-Tyr-OH)

Row | Ki [µM] | Compound
43 | 18 | CC(C)C[C@H](N)C(=O)NCC(=O)NCC(=O)O (H-Leu-Gly-Gly-OH)
44 | 10 | CC(C)C[C@H](N)C(=O)N1CCC[C@H]1C(=O)O (H-Leu-Pro-OH)
45 | 41 | C[C@H](NC(=O)[C@@H](N)CCCCN)C(=O)O (H-Lys-Ala-OH)
46 | 3 | CSCC[C@H](NC(=O)[C@@H](N)CCSC)C(=O)O (H-Met-Met-OH)
47 | 14 | N[C@@H](Cc1ccccc1)C(=O)NCC(=O)O (H-Phe-Gly-OH)
48 | 37 | N[C@@H](Cc1ccccc1)C(=O)N[C@@H](Cc1ccccc1)C(=O)O (H-Phe-Phe-OH)
49 | 7 | C[C@H](NC(=O)[C@@H](N)CO)C(=O)O (H-Ser-Ala-OH)
50 | 4 | C[C@H](NC(=O)[C@@H](N)Cc1c[nH]c2ccccc12)C(=O)O (H-Trp-Ala-OH)
51 | 0.8 | N[C@@H](Cc1c[nH]c2ccccc12)C(=O)N[C@@H](Cc1c[nH]c2ccccc12)C(=O)O (H-Trp-Trp-OH)
52 | 0.3 | N[C@@H](Cc1c[nH]c2ccccc12)C(=O)N[C@@H](Cc1c[nH]c2ccccc12)C(=O)N[C@@H](Cc1c[nH]c2ccccc12)C(=O)O (H-Trp-Trp-Trp-OH)
53 | 9 | N[C@@H](Cc1ccc(O)cc1)C(=O)N[C@@H](Cc1ccccc1)C(=O)O (H-Tyr-Phe-OH)
54 | 39 | CC(C)[C@H](N)C(=O)N1CCC[C@H]1C(=O)O (H-Val-Pro-OH)
55 | 2.5 | CC(C)[C@H](N)C(=O)N[C@@H](Cc1ccc(O)cc1)C(=O)O (H-Val-Tyr-OH)
56 | 130 | C[C@H](NC(=O)[C@@H](C)N)C(=O)O (H-[dA]-Ala-OH)
57 | 3 | CC1=C(C(=O)O)N2C(=O)[C@@H](NC(=O)[C@H](N)c3ccc(O)cc3)[C@H]2SC1 [CEFADROXIL]
58 | 75 | CC1=C(C(=O)O)N2C(=O)[C@@H](NC(=O)[C@H](N)c3ccccc3)[C@H]2SC1 [CEPHALEXIN ANHYDROUS]
59 | 44 | CC1(C)S[C@@H]2[C@H](NC(=O)C3(N)CCCCC3)C(=O)N2[C@H]1C(=O)O [CYCLACILLIN]
